According to US20230191096A1, “PHARMACEUTICAL COMPOSITION FOR USE IN TREATING SUBJECT IN HYPOXIC STATE DUE TO RESPIRATORY FAILURE, ETC” (National University Corporation Tokyo Medical and Dental …, priority 2020, published 2023):

Tests used:
hypoxic pigs = assay: Intrarectal oxygenated PFC in hypoxic pigs; assay type: in vivo; conditions: intrarectal administration
[1] = Oxygen partial pressure of PFC bubbled with pure oxygen; assay type: physicochemical
Description: (§1) With use of a liquid perfluorocarbon (PFC)^12-16, an intestinal gas ventilation (ILV) system was developed. Mice were randomly assigned to two groups: sham group (group 9, n=10); and intestinal gas ventilation group (group 12, n=12). For the intestinal gas ventilation (ILV), a PFC (octadecafluorodecahydronaphthalene, Wako Pure Chemical Industries, Ltd., Osaka, Japan) was bubbled with pure oxygen for 45 minutes to dissolve oxygen therein.
First, an O2-containing PFC was prepared (by O2 bubbling at 1 L/min over 45 minutes; FIG. 3A). For mice (groups 12, 18, 19; hereinafter, referred to as intestinal gas ventilation (ILV) groups), the liquid of PFC was then infused into the intestinal tract (i.e., the rectum) in a total volume of 1 mL/mouse. The average oxygen pressure in the PFC after O2 bubbling for 45 minutes was 438±19.9 mmHg (n=3, FIG. 4E). Effects on the treated mice were evaluated by mobility assay. In summary, the walking distances of the mice were calculated to find statistical increase for the group with O2—PFC liquid infusion therapy after inhalation of hypoxic gas (the ILV group with administration of the O2-containing PFC) as compared with the control group (FiO2 0.10, control group, 0.408±1.02 cm per 20 seconds; FiO2 0.10, treated group, 3.34±4.05 cm, p<0.0001, FIG. 3B).

mice = assay: Oral administration of PFD subjected to oxygen bubbling, left ventricular blood gas; assay type: in vivo
Description: PFD subjected to oxygen bubbling was administered to mice through oral administration, and the effects on blood oxygen partial pressure and carbon dioxide partial pressure were examined. As a negative control, a mouse group with oral administration of physiological saline ([…]; n=3) was used. […] In the negative control group, in contrast to that, there were smaller amounts of contents in the intestinal tract than in the bubbled-PFD oral administration group (FIG. 14A). An attempt was made to recover contents by inserting a syringe into the intestinal tract. In the attempt, transparent liquid suspected to be PFD was successfully recovered in the syringe for the bubbled-PFD oral administration group (FIG. 14B). For the negative control group, by contrast, such liquid was not recovered, and nothing recovered was left in the syringe. […] One hour after administration, tracheostomy was performed, and ventilation was performed with room air under management with a ventilator. Thoracotomy was performed and blood was collected from the heart, and the oxygen partial pressure and carbon dioxide partial pressure in the blood obtained were measured by iSTAT.

[2] = test system: acute respiratory distress syndrome (ARDS) pig model; assay: Intrarectal oxygenated PFC in acute respiratory distress syndrome (ARDS) pig model; assay type: in vivo; conditions: ARDS pigs
Description: Furthermore, an acute respiratory distress syndrome (ARDS) pig model was produced, and improvement of oxygen partial pressure by intrarectal administration of oxygenated PFC was examined. First, micromini pigs and pork pigs (female) were used to produce an ARDS model. Physiological saline was directly administered into the airway at 40 mL/kg. […] Histological examination of lung tissue confirmed impairment of alveolar walls such as the formation of hyaline membranes, the formation of residual protein layers in alveolar spaces, and septal hypertrophy. […] Then, the thus-produced ARDS pigs were each subjected to laparotomy by median incision, and a drain for administration of perfluorodecalin was placed at a depth of 40 cm from the anus, and an […] DennisTM Colorectal Tube for recovery of perfluorodecalin was placed in the anus side.

[3] = Blood PFD concentration by GC/MS/MS; assay type: in vivo; conditions: 0.5 hours, 2 hours, and 24 hours after administration, n=6
Description: (§2) The blood PDF concentration 0.5 hours, 2 hours, and 24 hours after administration of perfluorodecalin (PFD) was measured by GC/MS/MS at times (n=6). […] Systemic toxicity after six cycles of administration of PDF was examined.

C57BL/6J mice [4] = assay: Intestinal liquid ventilation (ILV) with oxygenated PFC, oxygen partial pressure in inferior vena cava; assay type: in vivo; conditions: 120 min after 1 mL PFC via the intestinal tract
Description: as §1

[5] = Systemic toxicity after six cycles of administration of PFD, analysis of serum; assay type: in vivo; conditions: for ALP / AST / Albumin / CK / Calcium / Chloride / Creatinine / Erythrocytes / Glucose / Hematocrit / Hemoglobin / Leukocytes / Platelets / Pottasium / Sodium / Total cholesterol / Tri-glyceride / Urea nitrogen / ALT: 6 doses (time/day), blood collection Day 2; for ALT: *p < 0.05
Description: as §2

LEWIS rats = assay: Intrarectal oxygenated perfluorodecalin, blood gas (FIG. 9); assay type: in vivo; conditions: for blood oxygen partial pressure vs physiological saline: intrarectal 20 mL/kg
Description: As an experiment for reproduction, LEWIS rats (male) ranging from 250 to 350 g were grouped into three groups: control group; I-EVA group (using research-grade perfluorodecalin (PFD) from Wako Pure Chemical Industries, Ltd.); and I-EVA group (using clinical-grade perfluorodecalin from F2C). Perfluorodecalin bubbled with pure oxygen gas was administered into the rectum of each rat at 20 mL/kg, and 15 minutes and 120 minutes thereafter the arterial blood was collected under anesthesia and 21% oxygen inhalation, and the oxygen partial pressure was measured.
Next, C57BL6J mice ranging from 20 to 30 g were grouped into two group: control group (physiological saline administration group); and I-EVA group (using perfluorodecalin from F2C with oxygenation). The mice of the control group were each anesthetized by intraperitoneal administration of ketamine (80 to 100 mg/kg) and xylazine (10 mg/kg) and subjected to inhalation under 15% hypoxic condition, and, when SpO2 just exceeded 70%, oxygenated perfluorodecalin was administered into the rectum at 40 mL/kg, and effects on respiratory failure were validated by using an SpO2 monitor. After the completion of the experiment, the perfluorodecalin enterally administered was recovered, and the carbon dioxide concentration was measured to compare with that measured before the operation.

C57BL/6J mice [6] = assay: Behavior analysis (walking distance) of ILV-treated hypoxic mice; assay type: in vivo; conditions: per 20 seconds; FiO2 0.10; 120 minutes after injection to the intestinal tract
Description: Behavioral improvement in ILV-treated hypoxic mice was analyzed. The mobilities of mice were monitored for a set of two parameters from a fitted ellipse (centroidal positions (x, y)). With use of these parameters, walking distance was calculated every 20 seconds for mice of a control group and a treated group (both n=3). […] For the treated group, an O2-labeled perfluorocarbon was used as described above, and inhalation of hypoxic gas (FiO2 0.10) was performed 120 minutes after the injection to the intestinal tract (FIG. 4A).

C57BL/6J mice [7] = assay: ILV in respiratory failure model, oxygen partial pressure in left ventricle (FiO2 0.10); assay type: in vivo
Description: In ILV experiment, mice were randomly assigned to two groups: sham group (group 13, n=4); and ILV groups (group 18, n=4; group 19, n=4). The PFC was given to each mouse via the intestinal tract in the above-described manner, and 60 minutes and 120 minutes thereafter the oxygen partial pressure in the left ventricle of the heart under inhalation of hypoxic gas was analyzed (FiO2 0.10, inhalation time: 10 minutes).

C57BL6J mice = assay: Intrarectal oxygenated perflubron in mice having respiratory failure, SpO2 monitor; assay type: in vivo; conditions: 15% hypoxic condition; 40 mL/kg into the rectum
Description: Experiment was carried out to administer oxygenated perflubron to mice having respiratory failure. PFB manufactured by OriGen Biomedical (Perflubron, product name: Liquivent) was oxygenated by oxygen bubbling. Male C57BL6J mice (male) ranging from 20 to 30 g were grouped into two groups: control group (physiological saline administration group); and I-EVA group (using oxygenated perflubron). The mice of the control group were each anesthetized by intraperitoneal administration of ketamine (80 to 100 mg/kg) and xylazine (10 mg/kg) and subjected to inhalation under 15% hypoxic condition, and, when SpO2 just exceeded 70%, perflubron was administered into the rectum at 40 mL/kg, and effects on respiratory failure were validated by using an SpO2 monitor.

[8] = Oxygen and carbon dioxide partial pressures of the PFB before bubbling, after bubbling and after intrarectal administration; design: species or system mice; conditions: after oxygen bubbling vs before
[9] = oral 250 μL/mouse, heart blood one hour after administration, room air ventilation
[10] = 120 minutes after administration

## FC1(F)C(F)(F)C(F)(F)C2(F)C(F)(F)C(F)(F)C(F)(F)C(F)(F)C2(F)C1(F)F (stereo not shown) [PFD, octadecafluorodecahydronaphthalene]
Hypoxic pigs
  blood oxygen partial pressure: improvement in blood oxygen partial pressure
  carbon dioxide partial pressure: decrease in carbon dioxide partial pressure
  oxygen saturation: improved the oxygen saturation
[1]; after O2 bubbling for 45 minutes (1 L/min), n=3
  average oxygen pressure in the PFC: 438±19.9 mmHg
[1]; bubbled with pure oxygen, after 120 minutes
  average pressure of oxygen in the perfluorocarbon: 438±19.9 mmHg
mice; oral 250 μL/mouse to the stomach by probe
  gastrointestinal transit after oral administration: passed through the stomach and arrived at the intestine
mice; [9]
  blood carbon dioxide partial pressure vs negative control group: tendency to exhibit decreased blood carbon dioxide partial pressure
  blood oxygen partial pressure vs negative control group: tendency to exhibit increased blood oxygen partial pressure
[2]
  acidosis: did not exhibit marked acidosis
[2]; oxygenated perfluorodecalin repeatedly at 20 mL/kg intrarectal
  oxygen partial pressure, improvement: about 300 mmHg
[3]
  blood PFD concentration (detection limit): < 1 µg/mL
C57BL/6J mice [4]
  oxygen partial pressure in the inferior vena cava, pressure difference ILV group vs control group: 9.40±3.65 mmHg
[5]; PFD dose volume 1 ml/head
  ALP: 470 ± 112 U/L
  AST: 68 ± 2 U/L
  Albumin: 2.6 ± 0.1 g/dL
  CK: 170 ± 22 U/L
  Calcium: 10.1 ± 0.1 mg/dL
  Chloride: 103 ± 1 mmol/L
  Creatinine: 0.2 mg/dL
  Erythrocytes: 752 ± 24 ×10^4/μl
  Glucose: 123 ± 22 mg/dL
  Hematocrit: 45.0 ± 1.1%
  Hemoglobin: 15.1 ± 0.7 g/dL
  Leukocytes: 102 ± 18 10^2/μL
  Platelets: 112 ± 11.5 10^4/µL
  Pottasium: 3.6 ± 0.2 mmol/L
  Sodium: 143 mmol/L
  Total cholesterol: 75 ± 20 mg/dL
  Tri-glyceride: 21 ± 7 mg/dL
  Urea nitrogen: 14 ± 2 mg/dL
  ALT: 24 ± 3* U/L
[5]; PFD dose volume 1.5 ml/head
  ALP: 540 ± 64 U/L
  AST: 72 ± 5 U/L
  Albumin: 2.6 ± 0.1 g/dL
  CK: 196 ± 12 U/L
  Calcium: 9.9 ± 0.3 mg/dL
  Chloride: 105 ± 1 mmol/L
  Creatinine: 0.3 ± 0.1 mg/dL
  Erythrocytes: 791 ± 24 ×10^4/μl
  Glucose: 123 ± 18 mg/dL
  Hematocrit: 45.6 ± 1.4%
  Hemoglobin: 15.2 ± 0.6 g/dL
  Leukocytes: 88 ± 5 10^2/μL
  Platelets: 124 ± 20.1 10^4/µL
  Pottasium: 3.6 ± 0.2 mmol/L
  Sodium: 143 ± 1 mmol/L
  Total cholesterol: 71 ± 22 mg/dL
  Tri-glyceride: 20 ± 4 mg/dL
  Urea nitrogen: 14 ± 2 mg/dL
  ALT: 25 ± 1* U/L
[5]; six cycles of administration, serum analysis
  toxicity due to intrarectal administration: no particular toxicity
LEWIS rats; [10]
  blood carbon dioxide partial pressure vs physiological saline: significantly decreasing blood carbon dioxide partial pressure
  blood oxygen partial pressure vs physiological saline: enhancing blood oxygen partial pressure
LEWIS rats; 15 minutes after administration
  blood oxygen partial pressure vs physiological saline: enhancing blood oxygen partial pressure
C57BL/6J mice [6]
  walking distance: 3.34±4.05 cm
C57BL/6J mice [7]; FiO2 0.10
  ratio of arterial oxygen partial pressure between the control group and the treated group: approximately 1.6
C57BL/6J mice [7]; ILV group, hypoxic environment (FiO2 0.10)
  ventricular (arterial) oxygen partial pressure, PaO2: 63.8±5.59 mmHg
C57BL/6J mice [7]; hypoxic environment (FiO2 0.10), 60 minutes after ILV
  oxygen partial pressure in the left ventricle of the heart vs control group: significantly higher
C57BL/6J mice [7]; hypoxic environment (FiO2 0.10), after 120 minutes
  oxygen partial pressure in the left ventricle of the heart, pressure difference ILV group vs control group: 23.8±3.11 mmHg

## FC(F)(F)C(F)(F)C(F)(F)C(F)(F)C(F)(F)C(F)(F)C(F)(F)C(F)(F)Br [PFB, 1-bromo-heptadecafluorooctane]
C57BL6J mice
  SpO2: significant recovery of SpO2
[8]
  oxygen partial pressure of the PFB: enhanced oxygen partial pressure
